Test results published in the supplement of paper PMC10307832.

Experiments:
Experiment in all cases: relative viability (nuclei count vs DMSO), 5 days (fraction); higher = more cells survive
Pictilisib + Pemetrexed = compound: CS(=O)(=O)N1CCN(Cc2cc3nc(-c4cccc5[nH]ncc45)nc(N4CCOCC4)c3s2)CC1 [Pictilisib] + Nc1nc2[nH]cc(CCc3ccc(C(=O)N[C@@H](CCC(=O)O)C(=O)O)cc3)c2c(=O)[nH]1 [Pemetrexed] (partner 0.2 µM)
Method in brief: (§1)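 Lung cancer cell lines were pin-tool dosed in 1536-well plates on the day after seeding, with either a lone drug or a fixed anchor-drug dose plus five library-drug doses (not always all listed) in √10 steps. Nuclei were counted on 4× images after 5 days. Relative viability is the ratio of treated-well to vehicle-well nuclei counts, with each value a median of duplicate plates.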

Pictilisib + Trametinib = compound: CS(=O)(=O)N1CCN(Cc2cc3nc(-c4cccc5[nH]ncc45)nc(N4CCOCC4)c3s2)CC1 [Pictilisib] + CC(=O)Nc1cccc(-n2c(=O)n(C3CC3)c(=O)c3c(Nc4ccc(I)cc4F)n(C)c(=O)c(C)c32)c1 [Trametinib] (partner 0.02 µM)
Method in brief: as §1

MK-2206 + Bortezomib = compound: NC1(c2ccc(-c3nc4ccn5c(=O)[nH]nc5c4cc3-c3ccccc3)cc2)CCC1 [MK-2206] + CC(C)C[C@H](NC(=O)[C@H](Cc1ccccc1)NC(=O)c1cnccn1)B(O)O [Bortezomib] (partner 0.002 µM)
Method in brief: as §1

MK-2206 + Pictilisib = compound: NC1(c2ccc(-c3nc4ccn5c(=O)[nH]nc5c4cc3-c3ccccc3)cc2)CCC1 [MK-2206] + CS(=O)(=O)N1CCN(Cc2cc3nc(-c4cccc5[nH]ncc45)nc(N4CCOCC4)c3s2)CC1 [Pictilisib] (partner 1 µM)
Method in brief: as §1

MK-2206 + Palbociclib = compound: NC1(c2ccc(-c3nc4ccn5c(=O)[nH]nc5c4cc3-c3ccccc3)cc2)CCC1 [MK-2206] + CC(=O)c1c(C)c2cnc(Nc3ccc(N4CCNCC4)cn3)nc2n(C2CCCC2)c1=O [Palbociclib] (partner 0.5 µM)
Method in brief: as §1

| Cell Line | relative viability (Pictilisib + Pemetrexed; first compound 0.02 µM) | relative viability (Pictilisib + Pemetrexed; first compound 0.06325 µM) | relative viability (Pictilisib + Pemetrexed; first compound 0.6325 µM) | relative viability (Pictilisib + Pemetrexed; first compound 2 µM) | relative viability (Pictilisib + Trametinib; first compound 0.02 µM) | relative viability (Pictilisib + Trametinib; first compound 0.06325 µM) | relative viability (Pictilisib + Trametinib; first compound 0.6325 µM) | relative viability (Pictilisib + Trametinib; first compound 2 µM) | relative viability (MK-2206 + Bortezomib; first compound 0.01 µM) | relative viability (MK-2206 + Bortezomib; first compound 0.03162 µM) | relative viability (MK-2206 + Bortezomib; first compound 0.3162 µM) | relative viability (MK-2206 + Bortezomib; first compound 1 µM) | relative viability (MK-2206 + Pictilisib; first compound 0.01 µM) | relative viability (MK-2206 + Pictilisib; first compound 0.03162 µM) | relative viability (MK-2206 + Pictilisib; first compound 0.3162 µM) | relative viability (MK-2206 + Pictilisib; first compound 1 µM) | relative viability (MK-2206 + Palbociclib; first compound 0.01 µM) | relative viability (MK-2206 + Palbociclib; first compound 0.03162 µM) | relative viability (MK-2206 + Palbociclib; first compound 0.3162 µM) | relative viability (MK-2206 + Palbociclib; first compound 1 µM) |
| --- | --- | --- | --- | --- | --- | --- | --- | --- | --- | --- | --- | --- | --- | --- | --- | --- | --- | --- | --- | --- |
| NCI-H1355 | 1.02 | 1.05 | 1.08 | 0.478 | 0.4 | 0.343 | 0.295 | 0.198 | 1.22 | 1.25 | 1.07 | 1.14 | 0.486 | 0.475 | 0.454 | 0.4 | 0.39 | 0.392 | 0.362 | 0.329 |
| NCI-H1437 | 0.317 | 0.318 | 0.274 | 0.215 | 0.472 | 0.418 | 0.289 | 0.194 | 0.521 | 0.531 | 0.444 | 0.529 | 0.472 | 0.399 | 0.366 | 0.263 | 0.304 | 0.332 | 0.336 | 0.286 |
| NCI-H1650 | 0.325 | 0.361 | 0.358 | 0.302 | 0.595 | 0.662 | 0.506 | 0.382 | 0.196 | 0.195 | 0.207 | 0.2 | 0.549 | 0.566 | 0.476 | 0.56 | 0.291 | 0.334 | 0.331 | 0.356 |
| NCI-H1651 | 0.516 | 0.591 | 0.519 | 0.38 | 0.753 | 0.825 | 0.7 | 0.656 | 0.881 | 0.903 | 1.02 | 0.947 | 0.672 | 0.655 | 0.632 | 0.408 | 0.506 | 0.536 | 0.486 | 0.482 |
| NCI-H1666 | 0.947 | 0.846 | 0.737 | 0.725 | 0.802 | 0.892 | 0.622 | 0.575 | 0.832 | 0.801 | 0.613 | 0.5 | 0.403 | 0.414 | 0.405 | 0.403 | 0.63 | 0.675 | 0.652 | 0.586 |
| NCI-H1734 | 0.39 | 0.417 | 0.39 | 0.355 | 0.692 | 0.717 | 0.499 | 0.315 | 0.847 | 1.02 | 0.66 | 0.725 | 0.475 | 0.463 | 0.329 | 0.393 | 0.238 | 0.369 | 0.28 | 0.264 |
| NCI-H1755 | 0.472 | 0.397 | 0.396 | 0.329 | 0.821 | 0.667 | 0.718 | 0.327 | 0.96 | 0.99 | 0.838 | 0.689 | 0.47 | 0.48 | 0.36 | 0.4 | 0.461 | 0.419 | 0.388 | 0.43 |
| NCI-H1792 | 0.924 | 0.954 | 0.553 | 0.177 | 0.505 | 0.346 | 0.305 | 0.102 | 0.985 | 1 | 0.979 | 0.923 | 0.27 | 0.271 | 0.251 | 0.283 | 0.631 | 0.751 | 0.609 | 0.653 |
| NCI-H1915 | 0.548 | 0.524 | 0.464 | 0.394 | 0.322 | 0.295 | 0.285 | 0.244 | 0.969 | 1.02 | 0.983 | 0.862 | 0.866 | 1.1 | 0.88 | 0.947 | 0.594 | 0.612 | 0.499 | 0.505 |
| NCI-H1975 | 0.304 | 0.301 | 0.272 | 0.193 | 0.326 | 0.369 | 0.194 | 0.142 | 0.464 | 0.34 | 0.28 | 0.261 | 0.267 | 0.259 | 0.24 | 0.232 | 0.604 | 0.529 | 0.49 | 0.168 |
| NCI-H1993 | 0.608 | 0.605 | 0.449 | 0.442 | 0.543 | 0.469 | 0.523 | 0.488 | 1.08 | 1.2 | 0.769 | 0.613 | 0.85 | 0.742 | 0.742 | 0.86 | 0.638 | 0.74 | 0.545 | 0.471 |
| NCI-H2009 | 1.04 | 1.12 | 1.17 | 0.875 | 0.36 | 0.277 | 0.167 | 0.116 | 0.969 | 1.03 | 1.12 | 0.94 | 0.717 | 1.02 | 0.831 | 0.865 | 0.139 | 0.25 | 0.179 | 0.177 |
| NCI-H2023 | 0.195 | 0.228 | 0.171 | 0.105 | 0.52 | 0.404 | 0.315 | 0.172 | 0.958 | 0.838 | 0.778 | 0.612 | 0.231 | 0.197 | 0.206 | 0.191 | 0.39 | 0.347 | 0.297 | 0.208 |
| NCI-H2085 | 0.826 | 0.911 | 0.401 | 0.303 | 0.443 | 0.471 | 0.2 | 0.26 | 1.06 | 1.12 | 0.929 | 0.716 | 0.516 | 0.415 | 0.416 | 0.438 | 0.433 | 0.558 | 0.397 | 0.522 |
| NCI-H2087 | 0.7 | 0.736 | 0.612 | 0.553 | 0.204 | 0.165 | 0.138 | 0.153 | 0.763 | 0.875 | 0.807 | 0.69 | 0.817 | 0.933 | 0.833 | 0.671 | 0.225 | 0.226 | 0.184 | 0.217 |
